System: Human patients with short bowel syndrome
Assay: Example 1: liver diagnostic biomarkers (total bilirubin, ALT, AST, ALP) in short bowel syndrome patients, every four weeks for 24 weeks
Assay type: in vivo
Parameters: AST (SGOT) Change from Baseline, Median / ALT (SGPT), Median / TOTAL BILIRUBIN, Median / TOTAL BILIRUBIN Change from Baseline, Median / ALT (SGPT) Change from Baseline, Median / AST (SGOT), Median: unit not given here
Details: 0.05 mg/kg/day
Protocol: Human patients with short bowel syndrome were divided into three groups: a control group (16 total individuals) to receive placebo, an experimental group (35 total individuals) to receive teduglutide at 0.05 mg/kg/day throughout the study, and an experimental group (32 total individuals) to receive teduglutide at 0.1 mg/kg/day throughout the study. Patients were treated by subcutaneous injection of placebo or the appropriate dose of teduglutide. As individuals with short bowel syndrome are likely to experience associated liver and kidney disease, known biomarkers of liver and kidney function were monitored every four weeks, for 24 weeks. The liver biomarkers tested included total bilirubin, ALT and AST and ALP. The kidney biomarkers tested included urea nitrogen, creatinine and GFR. Before administration of placebo or teduglutide, diagnostic biomarker levels were tested to establish a baseline for each individual.
To visualize the effect of GLP-2 on the levels of the diagnostic biomarkers, the average change from baseline was calculated for the placebo and teduglutide treated groups for each visit after a baseline was established. The average change from baseline of each group is depicted in FIGS. […]. The numerical figures for each diaanostic biomarker at each time point are depicted in Table 1.
The efficacy of teduglutide in treating liver dysfunction was further tested by sorting the data into two groups: individuals with abnormal baseline values of liver diagnostic biomarkers; and individuals with normal baseline values of liver diagnostic biomarkers. The mean diagnostic biomarker change from baseline for these two groups is shown for ALT (FIGS. 5 and 6) and AST (FIGS. 7 and 8). […] These changes were significant when compared to baseline levels for the group, and when compared to placebo (see FIGS. 5 and 7).
The raw data for this sorting is reproduced in Table 2 below.

## CC[C@H](C)[C@H](NC(=O)[C@H](Cc1ccccc1)NC(=O)[C@H](CC(=O)O)NC(=O)[C@H](CCCNC(=N)N)NC(=O)[C@H](C)NC(=O)[C@H](C)NC(=O)[C@H](CC(C)C)NC(=O)[C@H](CC(N)=O)NC(=O)[C@H](CC(=O)O)NC(=O)[C@H](CC(C)C)NC(=O)[C@@H](NC(=O)[C@@H](NC(=O)[C@H](CC(N)=O)NC(=O)[C@H](CCSC)NC(=O)[C@H](CCC(=O)O)NC(=O)[C@H](CC(=O)O)NC(=O)[C@H](CO)NC(=O)[C@H](Cc1ccccc1)NC(=O)[C@H](CO)NC(=O)CNC(=O)[C@H](CC(=O)O)NC(=O)CNC(=O)[C@@H](N)Cc1c[nH]cn1)[C@@H](C)O)[C@@H](C)CC)C(=O)N[C@@H](CC(N)=O)C(=O)N[C@@H](Cc1c[nH]c2ccccc12)C(=O)N[C@@H](CC(C)C)C(=O)N[C@H](C(=O)N[C@@H](CCC(N)=O)C(=O)N[C@H](C(=O)N[C@@H](CCCCN)C(=O)N[C@H](C(=O)N[C@H](C(=O)N[C@@H](CC(=O)O)C(=O)O)[C@@H](C)O)[C@@H](C)CC)[C@@H](C)O)[C@@H](C)CC [teduglutide]
DW4
  ALKALINE PHOSPHATASE Change from Baseline, Mean (SD): −24.8 (45.66)
  ALKALINE PHOSPHATASE Change from Baseline, Median: −16.0
  ALKALINE PHOSPHATASE, Mean (SD): 159.5 (90.91)
  ALKALINE PHOSPHATASE, Median: 139.0
  ALT (SGPT) Change from Baseline, Mean (SD): −14.9 (26.39)
  ALT (SGPT) Change from Baseline, Median: −5.0
  ALT (SGPT), Mean (SD): 30.1 (14.08)
  ALT (SGPT), Median: 27.0
  AST (SGOT) Change from Baseline, Mean (SD): −5.5 (24.09)
  AST (SGOT) Change from Baseline, Median: −4.0
  AST (SGOT), Mean (SD): 29.1 (19.23)
  AST (SGOT), Median: 27.0
  TOTAL BILIRUBIN Change from Baseline, Mean (SD): −0.8 (4.31)
  TOTAL BILIRUBIN Change from Baseline, Median: 0.0
  TOTAL BILIRUBIN, Mean (SD): 10.4 (9.48)
  TOTAL BILIRUBIN, Median: 7.0
DW8
  ALKALINE PHOSPHATASE Change from Baseline, Mean (SD): −24.0 (64.47)
  ALKALINE PHOSPHATASE Change from Baseline, Median: −20.0
  ALKALINE PHOSPHATASE, Mean (SD): 152.2 (84.05)
  ALKALINE PHOSPHATASE, Median: 134.0
  ALT (SGPT) Change from Baseline, Mean (SD): −9.8 (30.38)
  ALT (SGPT) Change from Baseline, Median: −4.0
  ALT (SGPT), Mean (SD): 37.3 (23.71)
  ALT (SGPT), Median: 31.5
  AST (SGOT) Change from Baseline, Mean (SD): −3.2 (19.88)
  AST (SGOT) Change from Baseline, Median: −3.0
  AST (SGOT), Mean (SD): 33.5 (18.56)
  AST (SGOT), Median: 28.0
  TOTAL BILIRUBIN Change from Baseline, Mean (SD): −0.4 (4.78)
  TOTAL BILIRUBIN Change from Baseline, Median: −1.0
  TOTAL BILIRUBIN, Mean (SD): 10.8 (8.86)
  TOTAL BILIRUBIN, Median: 8.0
DW12
  ALKALINE PHOSPHATASE Change from Baseline, Mean (SD): −39.4 (48.95)
  ALKALINE PHOSPHATASE Change from Baseline, Median: −24.0
  ALKALINE PHOSPHATASE, Mean (SD): 143.5 (73.92)
  ALKALINE PHOSPHATASE, Median: 130.5
  ALT (SGPT) Change from Baseline, Mean (SD): −12.7 (29.55)
  ALT (SGPT) Change from Baseline, Median: −10.0
  ALT (SGPT), Mean (SD): 34.6 (24.30)
  ALT (SGPT), Median: 26.0
  AST (SGOT) Change from Baseline, Mean (SD): −5.9 (19.28)
  AST (SGOT) Change from Baseline, Median: −8.0
  AST (SGOT), Mean (SD): 29.2 (15.48)
  AST (SGOT), Median: 26.5
  TOTAL BILIRUBIN Change from Baseline, Mean (SD): −1.8 (5.75)
  TOTAL BILIRUBIN Change from Baseline, Median: −1.0
  TOTAL BILIRUBIN, Mean (SD): 9.4 (6.65)
  TOTAL BILIRUBIN, Median: 7.0
DW16
  ALKALINE PHOSPHATASE Change from Baseline, Mean (SD): −12.3 (69.90)
  ALKALINE PHOSPHATASE Change from Baseline, Median: −20.5
  ALKALINE PHOSPHATASE, Mean (SD): 168.2 (128.08)
  ALKALINE PHOSPHATASE, Median: 134.0
  ALT (SGPT) Change from Baseline, Mean (SD): −3.2 (24.76)
  ALT (SGPT) Change from Baseline, Median: −2.5
  ALT (SGPT), Mean (SD): 39.5 (39.44)
  ALT (SGPT), Median: 28.0
  AST (SGOT) Change from Baseline, Mean (SD): −4.3 (11.75)
  AST (SGOT) Change from Baseline, Median: −1.5
  AST (SGOT), Mean (SD): 29.3 (12.05)
  AST (SGOT), Median: 25.0
  TOTAL BILIRUBIN Change from Baseline, Mean (SD): −1.3 (9.00)
  TOTAL BILIRUBIN Change from Baseline, Median: −1.0
  TOTAL BILIRUBIN, Mean (SD): 10.0 (8.90)
  TOTAL BILIRUBIN, Median: 7.0
DW20
  ALKALINE PHOSPHATASE Change from Baseline, Mean (SD): −36.9 (49.89)
  ALKALINE PHOSPHATASE Change from Baseline, Median: −25.0
  ALKALINE PHOSPHATASE, Mean (SD): 144.2 (76.09)
  ALKALINE PHOSPHATASE, Median: 136.5
  ALT (SGPT) Change from Baseline, Mean (SD): −16.0 (28.73)
  ALT (SGPT) Change from Baseline, Median: −5.0
  ALT (SGPT), Mean (SD): 29.7 (13.35)
  ALT (SGPT), Median: 26.0
  AST (SGOT) Change from Baseline, Mean (SD): −8.0 (14.96)
  AST (SGOT) Change from Baseline, Median: −4.0
  AST (SGOT), Mean (SD): 26.1 (7.02)
  AST (SGOT), Median: 25.0
  TOTAL BILIRUBIN Change from Baseline, Mean (SD): −0.8 (5.69)
  TOTAL BILIRUBIN Change from Baseline, Median: 0.0
  TOTAL BILIRUBIN, Mean (SD): 9.7 (6.78)
  TOTAL BILIRUBIN, Median: 9.0
DW24
  ALKALINE PHOSPHATASE Change from Baseline, Mean (SD): −11.6 (166.86)
  ALKALINE PHOSPHATASE Change from Baseline, Median: −29.0
  ALKALINE PHOSPHATASE, Mean (SD): 169.6 (204.22)
  ALKALINE PHOSPHATASE, Median: 131.0
  ALT (SGPT) Change from Baseline, Mean (SD): −13.5 (24.40)

— US20130072430A1, “METHODS FOR TREATMENT OR PROPHYLAXIS OF KIDNEY OR LIVER DYSFUNCTION” (NPS PHARMACEUTICALS, INC., priority 2010, published 2013)
